# Test results taken from patent publication US12240862B2, “Inhibitors of peptidylarginine deiminases” (Gilead Sciences, Inc., priority 2020, dated 2025).
# Molecular target: T1, human PAD4 (Homo sapiens, UniProt Q9UM07)
# T1 construct: human PAD4 (NM_012387), A2P663, was PCR amplified; His-SUMO (N, cleaved yes); made in house; host or cells: E. coli BL21(DE3)
# Assay: In vitro PAD4 BAEE biochemical assay
# Conditions: human PAD4, BAEE substrate; 5 nM PAD4, 2 mM calcium chloride, 3 mM BAEE; geometric mean of multiple experiments
# Method in brief: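 Tag-free recombinant hPAD4 (5 nM), 2 mM CaCl2, 3 mM BAEE, 50 mM MOPS pH 7.6, 2 mM DTT; 30 min compound preincubation, 2 h reaction, all 25 °C. EDTA quench; ammonia read via o-phthalaldehyde amine coupling, 1 h.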
# T1 sequence (Q9UM07 2-663): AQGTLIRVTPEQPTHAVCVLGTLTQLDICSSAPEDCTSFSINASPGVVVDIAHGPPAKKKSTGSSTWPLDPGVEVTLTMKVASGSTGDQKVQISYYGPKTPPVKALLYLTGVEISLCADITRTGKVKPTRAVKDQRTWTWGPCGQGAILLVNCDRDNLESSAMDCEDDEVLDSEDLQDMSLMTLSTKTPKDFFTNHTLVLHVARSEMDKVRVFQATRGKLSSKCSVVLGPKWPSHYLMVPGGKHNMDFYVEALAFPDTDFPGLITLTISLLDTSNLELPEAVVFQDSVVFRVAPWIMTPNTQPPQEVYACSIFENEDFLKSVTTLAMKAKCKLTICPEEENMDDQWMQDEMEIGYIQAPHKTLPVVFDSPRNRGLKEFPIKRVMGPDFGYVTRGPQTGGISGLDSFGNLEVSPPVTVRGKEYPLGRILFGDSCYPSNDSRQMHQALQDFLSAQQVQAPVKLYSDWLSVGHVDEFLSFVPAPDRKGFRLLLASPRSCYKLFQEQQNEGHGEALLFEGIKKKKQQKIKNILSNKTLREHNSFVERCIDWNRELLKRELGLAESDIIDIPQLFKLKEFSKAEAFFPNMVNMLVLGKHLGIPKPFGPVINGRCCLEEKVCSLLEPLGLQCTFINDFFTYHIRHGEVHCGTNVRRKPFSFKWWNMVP
row,Molecule,IC50
1,"CCCC(=O)N[C@H](C)c1ccc2cc(-c3nc4cc(C(=O)N5[C@H]6CC[C@@H]5[C@H](N)C6)cc(OC)n4c3C)n(CC3CC3)c2n1 [Example 90, ~{N}-[(1~{R})-1-[2-[7-[(1~{R},2~{R},4~{S})-2-amino-7-azabicyclo[2.2.1]heptane-7-carbonyl]-5-methoxy-3-methylimidazo [1,2-a]pyridin-2-yl]-1-(cyclopropylmethyl)pyrrolo [2,3-b]pyridin-6-yl]ethyl]butanamide]",0.0304 µM
2,"CCc1ccc2cc(-c3nc4cc(C(=O)N5CCC[C@@H](N)C5)ccn4c3C3CC3)n(CC3CC3)c2n1 [Example 597, [(3~{R})-3-aminopiperidin-1-yl]-[3-cyclopropyl-2-[1-(cyclopropylmethyl)-6-ethylpyrrolo[2,3-b]pyridin-2-yl]imidazo[1,2-a]pyridin-7-yl]methanone]",0.299 µM
3,"COc1cc(C(=O)N2[C@H]3CC[C@@H]2[C@H](N)C3)cc2nc(-c3cc4ccc([C@@H](C)NC(=O)c5cnn(C(C)(C)C)c5)nc4n3CC3CC3)c(C)n12 [Example 82, ~{N}-[(1~{R})-1-[2-[7-[(1~{R},2~{R},4~{S})-2-amino-7-azabicyclo[2.2.1]heptane-7-carbonyl]-5-methoxy-3-methylimidazo [1,2-a]pyridin-2-yl]-1-(cyclopropylmethyl)pyrrolo [2,3-b]pyridin-6-yl]ethyl]-1-~{tert}-butylpyrazole-4-carboxamide]",0.0512 µM
4,"COc1cc(C(=O)N2[C@H]3CC[C@@H]2[C@H](N)C3)cc2nc(-c3cc4ccc([C@@H](C)NC(=O)C5CC(O)(C(F)(F)F)C5)nc4n3CC3CC3)c(C)n12 (some centres unmarked) [Example 45, ~{N}-[(1~{R})-1-[2-[7-[(1~{R},2~{R},4~{S})-2-amino-7-azabicyclo[2.2.1]heptane-7-carbonyl]-5-methoxy-3-methylimidazo [1,2-a]pyridin-2-yl]-1-(cyclopropylmethyl)pyrrolo[2,3-b]pyridin-6-yl]ethyl]-3-hydroxy-3-(trifluoromethyl) cyclobutane-1-carboxamide]",0.0251 µM
5,"COc1cc(C(=O)N2[C@H]3CC[C@@H]2[C@H](N)C3)cc2nc(-c3cc4ccc([C@@H](C)NC(=O)[C@H]5C[C@@](C)(O)C5)nc4n3CC3CC3)c(C)n12 [Example 54, ~{N}-[(1~{R})-1-[2-[7-[(1~{R},2~{R}, 4~{S})-2-amino-7-azabicyclo[2.2.1]heptane-7-carbonyl]-5-methoxy-3-methylimidazo[1,2-a]pyridin-2-yl]-1-(cyclopropylmethyl)pyrrolo[2,3-b]pyridin-6-yl]ethyl]-3-hydroxy-3-methylcyclobutane-1-carboxamide]",0.0287 µM
6,"(2~{S})-2-[2-[7-[(3~{R})-3- aminopiperidine-1- carbonyl]-5-methoxy-3- methylimidazo[1,2- a]pyridin-2-yl]-1- (cyclopropylmethyl)pyrrolo [2,3-b]pyridin-6-yl] oxy-~{N}- methylpropanamide [Example 630]",9.4 µM
7,"CCN(c1ccc2cc(-c3nc4cc(C(=O)N5[C@H]6CC[C@@H]5[C@H](N)C6)cc(OC)n4c3C)n(CC3CC3)c2n1)S(C)(=O)=O [Example 475, ~{N}-[2-[7-[(1~{R},2~{R}, 4~{S})-2-amino-7-azabicyclo[2.2.1]heptane-7-carbonyl]-5-methoxy-3-methylimidazo[1,2-a]pyridin-2-yl]-1-(cyclopropylmethyl)pyrrolo [2,3-b]pyridin-6-yl]-~{N}-ethylmethanesulfonamide]",0.0751 µM
8,"CSc1cc(C(=O)N2CCC[C@@H](N)C2)cc2nc(-c3cc4ccc(N(C(F)F)S(C)(=O)=O)nc4n3CC3CC3)c(C)n12 [Example 387, ~{N}-[2-[7-[(3~{R})-3-aminopiperidine-1-carbonyl]-3-methyl-5-methylsulfanylimidazo[1,2-a]pyridin-2-yl]-1-(cyclopropylmethyl)pyrrolo [2,3-b]pyridin-6-yl]-~{N}-(difluoromethyl) methanesulfonamide]",0.779 µM
9,"COc1cc(C(=O)N2[C@H]3CC[C@@H]2[C@H](N)C3)cc2nc(-c3cc4ccc([C@@H](C)NC(=O)N[C@@H](C)c5cccnc5)nc4n3CC3CC3)c(C3CC3)n12 [Example 217, 1-[(1~{R})-1-[2-[7-[(1~{R},2~{R},4~{S})-2-amino-7-azabicyclo[2.2.1]heptane-7-carbonyl]-3-cyclopropyl-5-methoxyimidazo [1,2-a]pyridin-2-yl]-1-(cyclopropylmethyl)pyrrolo [2,3-b]pyridin-6-yl]ethyl]-3-[(1~{S})-1-pyridin-3-ylethyl]urea]",0.0459 µM
10,"COc1cc(C(=O)N2[C@H]3CC[C@H](N)[C@@H]2CC3)cc2nc(-c3cc4ccc(N(C(F)F)S(C)(=O)=O)nc4n3CC3CC3)c(C)n12 [Example 408, ~{N}-[2-[7-[(1~{S},2~{S}, 5~{S})-2-amino-8-azabicyclo[3.2.1]octane-8-carbonyl]-5-methoxy-3-methylimidazo[1,2-a]pyridin-2-yl]-1-(cyclopropylmethyl)pyrrolo [2,3-b]pyridin-6-yl]-~{N}-(difluoromethyl) methanesulfonamide]",3.02 µM
11,"COc1cc(C(=O)N2C[C@H]3CC[C@@H]2[C@@H]3N)cc2nc(-c3cc4ccc([C@@H](C)NC(=O)C(C)(C)C)nc4n3CC3CC3)c(C)n12 [Example 174, N-((R)-1-(2-(7-((1R,4R,7R)-7-amino-2-azabicyclo[2.2.1]heptane-2-carbonyl)-5-methoxy-3-methylimidazo[1,2-a]pyridin-2-yl)-1-(cyclopropylmethyl)-1H-pyrrolo [2,3-b]pyridin-6-yl)ethyl) pivalamide]",0.297 µM
12,"COc1cc(C(=O)N2CCC[C@@H](N)C2)cc2nc(-c3cc4ccc(N(C)S(C)(=O)=O)nc4n3CC3CC3)c(C)n12 [Example 482, ~{N}-[2-[7-[(3~{R})-3-aminopiperidine-1-carbonyl]-5-methoxy-3-methylimidazo[1,2-a]pyridin-2-yl]-1-(cyclopropylmethyl)pyrrolo [2,3-b]pyridin-6-yl]-~{N}-methylmethanesulfonamide]",0.171 µM
13,"COc1cc(C(=O)N2[C@H]3CC[C@@H]2[C@H](N)C3)cc2nc(-c3cc4ccc(N5c6ccccc6CCS5(=O)=O)nc4n3CC3CC3)c(C)n12 [Example 468, [(1~{R},2~{R},4~{S})-2-amino-7-azabicyclo [2.2.1]heptan-7-yl]-[2-[1-(cyclopropylmethyl)-6-(2,2-dioxo-3,4-dihydro-2$l^6,1-benzothiazin-1-yl)pyrrolo[2,3-b]pyridin-2-yl]-5-methoxy-3-methylimidazo[1,2-a]pyridin-7-yl]methanone]",0.238 µM
14,COc1cc(C(=O)N2CC[C@H]3CCN[C@H]3C2)cc2nc(-c3cc4ccc(N(C(F)F)S(C)(=O)=O)nc4n3CC3CC3)c(C)n12 [Example 325],0.154 µM
15,COc1cc(C(=O)N2[C@H]3CC[C@@H]2[C@H](N)C3)cc2nc(-c3cc4ccc([C@@H](C)NC(=O)c5ccnc(Cl)c5)nc4n3CC3CC3)c(C)n12 [Example 51],0.0309 µM
16,"COc1cc(C(=O)N2[C@H]3CC[C@@H]2[C@H](N)C3)cc2nc(-c3cc4ccc(N5[C@@H](C)CCCS5(=O)=O)nc4n3CC3CC3)c(C)n12 [Example 462, ((1R,2R,4S)-2-amino-7-azabicyclo[2.2.1]heptan-7-yl)(2-(1-(cyclopropylmethyl)-6-((S)-3-methyl-1,1-dioxido-1,2-thiazinan-2-yl)-1H-pyrrolo[2,3-b]pyridin-2-yl)-5-methoxy-3-methylimidazo[1,2-a]pyridin-7-yl)methanone]",0.0397 µM
17,"COc1cc(C(=O)N2CC[C@@H](NC(C)=O)[C@@H](N)C2)cc2nc(-c3cc4ccc(N(C(F)F)S(C)(=O)=O)nc4n3CC3CC3)c(C)n12 [Example 360, ~{N}-[(3~{S},4~{R})-3-amino-1-[2-[1-(cyclopropylmethyl)-6-[difluoromethyl (methylsulfonyl)amino]pyrrolo[2,3-b]pyridin-2-yl]-5-methoxy-3-methylimidazo[1,2-a]pyridine-7-carbonyl]piperidin-4-yl]acetamide]",0.725 µM
18,"COc1cc(C(=O)N2[C@H]3CC[C@@H]2[C@H](N)C3)cc2nc(-c3cc4ccc([C@@H](C)NC(=O)N5CCC(F)(F)CC5)nc4n3CC3CC3)c(C)n12 [Example 207, ~{N}-[(1~{R})-1-[2-[7-[(1~{R},2~{R},4~{S})-2-amino-7-azabicyclo[2.2.1]heptane-7-carbonyl]-5-methoxy-3-methylimidazo [1,2-a]pyridin-2-yl]-1-(cyclopropylmethyl)pyrrolo [2,3-b]pyridin-6-yl]ethyl]-4,4-difluoropiperidine-1-carboxamide]",0.046 µM
19,"COc1cc(C(=O)N2[C@H]3CC[C@@H]2[C@H](N)C3)cc2nc(-c3cc4ccc([C@@H](C)NC(=O)C(C)(C)C)nc4n3CC34CC(C3)C4)c(C3CC3)n12 [Example 486, N—((R)-1-(2-(7-((1R,2R,4S)-2-amino-7-azabicyclo[2.2.1]heptane-7-carbonyl)-3-cyclopropyl-5-methoxyimidazo[1,2-a]pyridin-2-yl)-1-(bicyclo[1.1.1]pentan-1-ylmethyl)-1H-pyrrolo[2,3-b]pyridin-6-yl)ethyl)pivalamide]",0.666 µM
20,"COc1cc(C(=O)N2[C@H]3CC[C@@H]2[C@H](N)C3)cc2nc(-c3cc4ccc([C@@H](C)NC(=O)N5CC6C(C5)C6(F)F)nc4n3CC3CC3)c(C)n12 (some centres unmarked) [Example 209, ~{N}-[(1~{R})-1-[2-[7-[(1~{R},2~{R},4~{S})-2-amino-7-azabicyclo[2.2.1]heptane-7-carbonyl]-5-methoxy-3-methylimidazo [1,2-a]pyridin-2-yl]-1-(cyclopropylmethyl)pyrrolo [2,3-b]pyridin-6-yl]ethyl]-6,6-difluoro-3-azabicyclo[3.1.0]hexane-3-carboxamide]",0.0378 µM
